Inconclusive results and toxic doses are left out.

This assay concerns P388 leukemia ip, CD2F1 mice, survival T/C. Put plainly: NCI In Vivo Anticancer Drug Screen. Data for tumor model P388 Leukemia (intraperitoneal) in CD2F1 (CDF1) mice. As to conditions: endpoint: median survival time, higher = longer survival. In a few lines:
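Mice carrying the transplanted tumor received test compound or vehicle. Survival was recorded in each group, and the value is the treated-group measurement divided by that of the vehicle-treated control group.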

[1] abbreviates: dose: 100.0 mg/kg/injection, schedule: Q01DX001 (ip), vehicle: saline with Tween-80.
Setting [2] is: dose: 200.0 mg/kg/injection, schedule: Q01DX001 (ip), vehicle: saline with Tween-80.
The mark [3] stands for this setting: dose: 400.0 mg/kg/injection, schedule: Q01DX001 (ip), vehicle: saline with Tween-80.
Setting [4] is: dose: 50.0 mg/kg/injection, schedule: Q01DX005 (ip), vehicle: saline with Tween-80.
Where [5] appears, read: dose: 100.0 mg/kg/injection, schedule: Q01DX005 (ip), vehicle: saline with Tween-80.
The mark [6] stands for this setting: dose: 200.0 mg/kg/injection, schedule: Q01DX005 (ip), vehicle: saline with Tween-80.
[7] abbreviates: dose: 50.0 mg/kg/injection, schedule: Q01DX005 (ip), vehicle: Klucel (hydroxypropylcellulose) (HPC).
The mark [8] stands for this setting: dose: 100.0 mg/kg/injection, schedule: Q01DX005 (ip), vehicle: Klucel (hydroxypropylcellulose) (HPC).
Where [9] appears, read: dose: 200.0 mg/kg/injection, schedule: Q01DX005 (ip), vehicle: Klucel (hydroxypropylcellulose) (HPC).
[10] abbreviates: dose: 50.0 mg/kg/injection, schedule: Q01DX009 (ip), vehicle: saline.
The mark [11] stands for this setting: dose: 100.0 mg/kg/injection, schedule: Q01DX009 (ip), vehicle: saline.
[12] abbreviates: dose: 200.0 mg/kg/injection, schedule: Q01DX009 (ip), vehicle: saline.
Where [13] appears, read: dose: 100.0 mg/kg/injection, schedule: Q01DX009 (ip), vehicle: Klucel (hydroxypropylcellulose) (HPC).
Setting [14] is: dose: 400.0 mg/kg/injection, schedule: Q01DX009 (ip), vehicle: saline.
Where [15] appears, read: dose: 50.0 mg/kg/injection, schedule: Q01DX009 (ip), vehicle: saline with Tween-80.
[16] abbreviates: dose: 100.0 mg/kg/injection, schedule: Q01DX009 (ip), vehicle: saline with Tween-80.
Setting [17] is: dose: 200.0 mg/kg/injection, schedule: Q01DX009 (ip), vehicle: saline with Tween-80.
Where [18] appears, read: dose: 100.0 mg/kg/injection, schedule: Q04DX002 (ip), vehicle: Klucel (hydroxypropylcellulose) (HPC).
The mark [19] stands for this setting: dose: 200.0 mg/kg/injection, schedule: Q04DX002 (ip), vehicle: Klucel (hydroxypropylcellulose) (HPC).

`CCc1nc(-c2ccccc2)nc2c1nc(C(C)C)n2Nc1ccccc1`: the T/C is 104 % of control under setting [1], 93 % of control under setting [2] and 89 % of control under setting [3].
Consider `O=C(O)C(Cc1ccsc1)NC(=O)C(F)(F)F` (centres undefined), for which the T/C is 94 % of control (dose: 50.0 mg/kg/injection, schedule: Q01DX009 (ip), vehicle: saline + alcohol); 99 % of control (dose: 100.0 mg/kg/injection, schedule: Q01DX009 (ip), vehicle: saline + alcohol); 98 % of control (dose: 200.0 mg/kg/injection, schedule: Q01DX009 (ip), vehicle: saline + alcohol).
On to `N#C/C(C(=S)S)=C(/O)c1ccccc1`, for which the T/C was 104 % of control (dose: 25.0 mg/kg/injection, schedule: Q01DX009 (ip), vehicle: saline sonified); 109 % of control (dose: 50.0 mg/kg/injection, schedule: Q01DX009 (ip), vehicle: saline sonified); 100 % of control (dose: 100.0 mg/kg/injection, schedule: Q01DX009 (ip), vehicle: saline sonified).
On to `C1CN2CCN3CCCN4CCN(C1)C2C34` (centres undefined), for which the T/C (dose: 50.0 mg/kg/injection, schedule: Q01DX005 (ip), vehicle: saline) is 93 % of control; the T/C (dose: 100.0 mg/kg/injection, schedule: Q01DX005 (ip), vehicle: saline) was 108 % of control; the T/C (dose: 200.0 mg/kg/injection, schedule: Q01DX005 (ip), vehicle: saline) was 111 % of control.
Turning to `CC1(C)N=C(N)N=C(N)N1c1ccc(CNC(=O)Nc2ccc(S(=O)(=O)F)cc2)c(Cl)c1`, the T/C reads like this: (dose: 132.0 mg/kg/injection, schedule: Q04DX003 (ip), vehicle: saline with Tween-80) 154 % of control; (dose: 200.0 mg/kg/injection, schedule: Q04DX003 (ip), vehicle: saline with Tween-80) 154 % of control.
For the molecule `Nc1n[nH]c(=O)c2cccnc12`, the T/C under setting [4] was 97 % of control, the T/C under setting [5] is 99 % of control and the T/C under setting [6] is 101 % of control.
As for `O=C(/N=C1\N=Nc2nc(C(C(=O)c3ccc(F)cc3)c3nc4n(c3O)/C(=N/C(=O)Nc3ccc(Cl)cc3)N=N4)c(O)n21)Nc1ccc(Cl)cc1` (centres undefined), the T/C was 91 % of control (dose: 60.0 mg/kg/injection, schedule: Q01DX005 (ip), vehicle: saline with Tween-80); 91 % of control (dose: 120.0 mg/kg/injection, schedule: Q01DX005 (ip), vehicle: saline with Tween-80); 88 % of control (dose: 240.0 mg/kg/injection, schedule: Q01DX005 (ip), vehicle: saline with Tween-80).
For the molecule `Cc1cccc(C)c1OCc1n[nH]c(=S)n1-c1ccccc1`, the T/C runs as follows: under setting [7], 89 % of control; under setting [8], 90 % of control; under setting [9], 90 % of control.
For `COc1ccc(-c2c(O)c3cccnc3[nH]c2=O)cc1`, the T/C is 102 % of control under setting [10], 104 % of control under setting [11] and 102 % of control under setting [12].
As to `Cc1c(N=Nc2cccc(Cl)c2)c(-c2ccccc2)nn1C(N)=S`, the T/C is 89 % of control under setting [1], 92 % of control under setting [2] and 90 % of control under setting [3].
Consider `Cc1cc([N+](=O)[O-])ccc1NC(=O)n1nnc2cc(Cl)ccc21`, for which the T/C runs as follows: (dose: 50.0 mg/kg/injection, schedule: Q01DX009 (ip), vehicle: Klucel (hydroxypropylcellulose) (HPC)) 98 % of control; under setting [13], 98 % of control; (dose: 200.0 mg/kg/injection, schedule: Q01DX009 (ip), vehicle: Klucel (hydroxypropylcellulose) (HPC)) 107 % of control.
As to `O=C(O)CCC(C(=O)O)N(Cc1ccccc1)Cc1ccccc1` (centres undefined), the T/C (dose: 100.0 mg/kg/injection, schedule: Q01DX001 (ip), vehicle: Klucel (hydroxypropylcellulose) (HPC)) was 105 % of control; the T/C (dose: 200.0 mg/kg/injection, schedule: Q01DX001 (ip), vehicle: Klucel (hydroxypropylcellulose) (HPC)) was 100 % of control; the T/C (dose: 400.0 mg/kg/injection, schedule: Q01DX001 (ip), vehicle: Klucel (hydroxypropylcellulose) (HPC)) is 105 % of control.
Consider `C#CC(C)(O)C(C)(C)C` (centres undefined), for which the T/C is 88 % of control (dose: 25.0 mg/kg/injection, schedule: Q01DX009 (ip), vehicle: saline); 98 % of control under setting [10]; 98 % of control under setting [11].
With `CS(=O)(=O)OCCOS(C)(=O)=O`, the T/C is 111 % of control under setting [10], 92 % of control under setting [13], 123 % of control under setting [11] and 163 % of control under setting [14].
For `CCN(C)c1cc(=O)c2c(ccc3ccccc32)o1`, the T/C runs as follows: under setting [15], 94 % of control; under setting [16], 101 % of control; under setting [17], 95 % of control.
With `CCOC(=O)C(N=Nc1ccc(Br)cc1C)C(C)=O` (centres undefined), the T/C was 98 % of control (dose: 25.0 mg/kg/injection, schedule: Q01DX005 (ip), vehicle: saline with Tween-80); 99 % of control under setting [4]; 98 % of control under setting [5]; 89 % of control under setting [6].
With `Cc1cnc(C(N)=O)c(=O)[nH]1`, the T/C under setting [11] was 95 % of control; the T/C (dose: 100.0 mg/kg/injection, schedule: Q04DX003 (ip), vehicle: saline) was 105 % of control; the T/C under setting [12] was 100 % of control; the T/C (dose: 200.0 mg/kg/injection, schedule: Q04DX003 (ip), vehicle: saline) was 100 % of control; the T/C under setting [14] was 100 % of control; the T/C (dose: 400.0 mg/kg/injection, schedule: Q04DX003 (ip), vehicle: saline) is 100 % of control.
With `CC(O)C(O)C(O)C(=O)NCc1ccccc1` (centres undefined), the T/C is 100 % of control under setting [4], 94 % of control under setting [5] and 99 % of control under setting [6].
`COc1cc(C(=O)NC(=S)Nc2csc(-c3ccc(F)cc3)n2)cc(OC)c1OC`: the T/C under setting [7] was 100 % of control, the T/C under setting [8] was 94 % of control and the T/C under setting [9] is 90 % of control.
Take `O=C(c1ccncc1)N(CO)N(Cn1c(=O)sc2ccccc21)Cn1c(=O)sc2ccccc21`: the T/C (dose: 6.25 mg/kg/injection, schedule: Q01DX009 (ip), vehicle: Klucel (hydroxypropylcellulose) (HPC)) is 101 % of control; the T/C (dose: 12.5 mg/kg/injection, schedule: Q01DX009 (ip), vehicle: Klucel (hydroxypropylcellulose) (HPC)) is 94 % of control; the T/C (dose: 25.0 mg/kg/injection, schedule: Q01DX009 (ip), vehicle: Klucel (hydroxypropylcellulose) (HPC)) is 92 % of control.
For the molecule `Cc1ccc(N/N=C2\CC(=O)NC(=O)N2)cc1C`, the T/C reads like this: under setting [15], 104 % of control; under setting [16], 104 % of control; under setting [17], 99 % of control.
Take `Cc1ccc(C2OC(N)=C(O)C2=O)cc1` (centres undefined): the T/C was 107 % of control (dose: 60.0 mg/kg/injection, schedule: Q01DX005 (ip), vehicle: Klucel (hydroxypropylcellulose) (HPC)); 100 % of control (dose: 120.0 mg/kg/injection, schedule: Q01DX005 (ip), vehicle: Klucel (hydroxypropylcellulose) (HPC)); 93 % of control (dose: 240.0 mg/kg/injection, schedule: Q01DX005 (ip), vehicle: Klucel (hydroxypropylcellulose) (HPC)).
As for `Cc1ccccc1NC(=O)OCC(CCl)(CCl)CCl`, the T/C was 99 % of control under setting [18]; 96 % of control under setting [19]; 89 % of control (dose: 400.0 mg/kg/injection, schedule: Q04DX002 (ip), vehicle: Klucel (hydroxypropylcellulose) (HPC)).
For the molecule `N#Cc1cc(Br)ccc1[N+](=O)[O-]`, the T/C runs as follows: (dose: 6.25 mg/kg/injection, schedule: Q01DX009 (ip), vehicle: saline) 103 % of control; (dose: 12.5 mg/kg/injection, schedule: Q01DX009 (ip), vehicle: saline) 101 % of control; under setting [10], 94 % of control; under setting [11], 90 % of control; under setting [12], 99 % of control.
In the case of `O=C(c1ccc(C(F)(F)F)cc1)N1C2C3C=CC(C3)C2N1C(=O)c1ccc(C(F)(F)F)cc1` (centres undefined), the T/C by setting is: (dose: 50.0 mg/kg/injection, schedule: Q04DX002 (ip), vehicle: Klucel (hydroxypropylcellulose) (HPC)) 102 % of control; under setting [18], 106 % of control; under setting [19], 102 % of control.
With `CCCCC[CH2][Ge]([CH2]CCC)([CH2]CCC)[CH]1CCCCC1`, the T/C was 106 % of control under setting [10], 103 % of control under setting [11] and 95 % of control under setting [12].

These data come from PubChem BioAssay AID330 (DTP/NCI, 2004).
